Assay results published in ChEMBL document CHEMBL2150933 (J Med Chem, 2012).

Columns and labels:
Format in all cases: functional
MDA-MB-468 = experiment: Cytotoxicity against human MDA-MB-468 cells after 48 hrs by SRB assay; settings: MDA-MB-468, 48 h
EKVX = experiment: Cytotoxicity against human EKVX cells after 48 hrs by SRB assay
HOP-62 = experiment: Cytotoxicity against human HOP62 cells after 48 hrs by SRB assay; settings: HOP-62, 48 h
A549 = experiment: Cytotoxicity against human A549 cells after 48 hrs by SRB assay; settings: A549, 48 h, read-out: pGI50 (converted)
RPMI-8226 = experiment: Cytotoxicity against human RPMI8226 cells after 48 hrs by SRB assay; settings: RPMI-8226, 48 h
SR = experiment: Cytotoxicity against human SR cells after 48 hrs by SRB assay
K562 = experiment: Cytotoxicity against human K562 cells after 48 hrs by SRB assay; settings: K562, 48 h
MOLT-4 = experiment: Cytotoxicity against human MOLT4 cells after 48 hrs by SRB assay; settings: MOLT-4, 48 h
CCRF-CEM = experiment: Cytotoxicity against human CCRF-CEM cells after 48 hrs by SRB assay
HL-60 = experiment: Cytotoxicity against human HL60 cells after 48 hrs by SRB assay; settings: HL-60, 48 h
HOP-92 = experiment: Cytotoxicity against human HOP92 cells after 48 hrs by SRB assay; settings: HOP-92, 48 h
NCI-H226 = experiment: Cytotoxicity against human NCI-H226 cells after 48 hrs by SRB assay; settings: NCI-H226, 48 h
NCI-H23 = experiment: Cytotoxicity against human NCI-H23 cells after 48 hrs by SRB assay; settings: NCI-H23, 48 h
NCI-H460 = experiment: Cytotoxicity against human NCI-H460 cells after 48 hrs by SRB assay; settings: NCI-H460, 48 h
NCI-H522 = experiment: Cytotoxicity against human NCI-H522 cells after 48 hrs by SRB assay; settings: NCI-H522, 48 h
COLO 205 = experiment: Cytotoxicity against human COLO205 cells after 48 hrs by SRB assay; settings: COLO 205, 48 h, read-out: pGI50 (converted)
HCC 2998 = experiment: Cytotoxicity against human HCC2998 cells after 48 hrs by SRB assay; settings: HCC 2998, 48 h
HCT-116 = experiment: Cytotoxicity against human HCT116 cells after 48 hrs by SRB assay; settings: HCT-116, 48 h
HCT-15 = experiment: Cytotoxicity against human HCT15 cells after 48 hrs by SRB assay; settings: HCT-15, 48 h
HT-29 = experiment: Cytotoxicity against human HT-29 cells after 48 hrs by SRB assay; settings: HT-29, 48 h
KM12 = experiment: Cytotoxicity against human KM12 cells after 48 hrs by SRB assay; settings: KM12, 48 h
SW-620 = experiment: Cytotoxicity against human SW620 cells after 48 hrs by SRB assay; settings: SW-620, 48 h
SF-268 = experiment: Cytotoxicity against human SF268 cells after 48 hrs by SRB assay; settings: SF-268, 48 h
SF-295 = experiment: Cytotoxicity against human SF295 cells after 48 hrs by SRB assay; settings: SF-295, 48 h, read-out: pGI50 (converted)
SF-539 = experiment: Cytotoxicity against human SF539 cells after 48 hrs by SRB assay; settings: SF-539, 48 h
SNB-19 = experiment: Cytotoxicity against human SNB19 cells after 48 hrs by SRB assay; settings: SNB-19, 48 h
SNB-75 = experiment: Cytotoxicity against human SNB75 cells after 48 hrs by SRB assay; settings: SNB-75, 48 h
U-251 = experiment: Cytotoxicity against human U251 cells after 48 hrs by SRB assay; settings: U-251, 48 h, read-out: pGI50 (converted)
LOX IMVI = experiment: Cytotoxicity against human LOXIMVI cells after 48 hrs by SRB assay
Malme-3M = experiment: Cytotoxicity against human MALME-3M cells after 48 hrs by SRB assay
M14 = experiment: Cytotoxicity against human M14 cells after 48 hrs by SRB assay; settings: M14, 48 h
MDA-MB-435 = experiment: Cytotoxicity against human MDA-MB-435 cells after 48 hrs by SRB assay; settings: MDA-MB-435, 48 h
SK-MEL-2 = experiment: Cytotoxicity against human SK-MEL-2 cells after 48 hrs by SRB assay; settings: SK-MEL-2, 48 h
SK-MEL-28 = experiment: Cytotoxicity against human SK-MEL-28 cells after 48 hrs by SRB assay; settings: SK-MEL-28, 48 h
SK-MEL-5 = experiment: Cytotoxicity against human SK-MEL-5 cells after 48 hrs by SRB assay; settings: SK-MEL-5, 48 h, read-out: pGI50 (converted)
UACC-257 = experiment: Cytotoxicity against human UACC257 cells after 48 hrs by SRB assay; settings: UACC-257, 48 h
UACC-62 = experiment: Cytotoxicity against human UACC62 cells after 48 hrs by SRB assay; settings: UACC-62, 48 h
IGROV-1 = experiment: Cytotoxicity against human IGROV1 cells after 48 hrs by SRB assay; settings: IGROV-1, 48 h, read-out: pGI50 (converted)
OVCAR-3 = experiment: Cytotoxicity against human OVCAR3 cells after 48 hrs by SRB assay; settings: OVCAR-3, 48 h
OVCAR-4 = experiment: Cytotoxicity against human OVCAR4 cells after 48 hrs by SRB assay; settings: OVCAR-4, 48 h
OVCAR-5 = experiment: Cytotoxicity against human OVCAR5 cells after 48 hrs by SRB assay; settings: OVCAR-5, 48 h
OVCAR-8 = experiment: Cytotoxicity against human OVCAR8 cells after 48 hrs by SRB assay; settings: OVCAR-8, 48 h, read-out: pGI50 (converted)
[1] = Cytotoxicity against human NCI-ADR-RES cells after 48 hrs by SRB assay
SK-OV-3 = experiment: Cytotoxicity against human SKOV3 cells after 48 hrs by SRB assay; settings: SK-OV-3, 48 h
[2] = Cytotoxicity against human 786-O cells after 48 hrs by SRB assay; settings: 786-0, 48 h
A498 = experiment: Cytotoxicity against human A498 cells after 48 hrs by SRB assay; settings: A498, 48 h
ACHN = experiment: Cytotoxicity against human ACHN cells after 48 hrs by SRB assay
CAKI-1 = experiment: Cytotoxicity against human Caki1 cells after 48 hrs by SRB assay; settings: CAKI-1, 48 h
RXF 393 = experiment: Cytotoxicity against human RXF393 cells after 48 hrs by SRB assay; settings: RXF 393, 48 h
SN12C = experiment: Cytotoxicity against human SN12C cells after 48 hrs by SRB assay
TK-10 = experiment: Cytotoxicity against human TK10 cells after 48 hrs by SRB assay; settings: TK-10, 48 h
UO-31 = experiment: Cytotoxicity against human UO31 cells after 48 hrs by SRB assay; settings: UO-31, 48 h
PC-3 = experiment: Cytotoxicity against human PC3 cells after 48 hrs by SRB assay; settings: PC-3, 48 h
DU-145 = experiment: Cytotoxicity against human DU145 cells after 48 hrs by SRB assay; settings: DU-145, 48 h
MCF7 = experiment: Cytotoxicity against human MCF7 cells after 48 hrs by SRB assay; settings: MCF7, 48 h
MDA-MB-231 = experiment: Cytotoxicity against human MDA-MB-231 cells after 48 hrs by SRB assay; settings: MDA-MB-231, 48 h, read-out: pGI50 (converted)
Hs-578T = experiment: Cytotoxicity against human Hs578T cells after 48 hrs by SRB assay
BT-549 = experiment: Cytotoxicity against human BT549 cells after 48 hrs by SRB assay; settings: BT-549, 48 h
T47D = experiment: Cytotoxicity against human T47D cells after 48 hrs by SRB assay

Structure (SMILES): CO[C@H](C(=O)[C@@H](O)[C@@H](C)O)[C@@H]1Cc2cc3cc(O[C@H]4C[C@@H](O[C@H]5C[C@@H](O)[C@H](O)[C@@H](C)O5)[C@H](O)[C@@H](C)O4)c(C)c(O)c3c(O)c2C(=O)[C@H]1O[C@H]1C[C@@H](O[C@H]2C[C@@H](O[C@H]3C[C@H](O)[C@H](O)[C@@H](C)O3)[C@H](O)[C@@H](C)O2)[C@H](O)[C@@H](C)O1
- GI50 (MDA-MB-468): 50.1 nM
- GI50 (EKVX): 135 nM
- GI50 (HOP-62): 56.2 nM
- GI50 (A549): 41.7 nM
- GI50 (RPMI-8226): 11.8 nM
- GI50 (SR): 14.1 nM
- GI50 (K562): 24.6 nM
- GI50 (MOLT-4): 47.9 nM
- GI50 (CCRF-CEM): 28.2 nM
- GI50 (HL-60): 53.7 nM
- GI50 (HOP-92): 30.2 nM
- GI50 (NCI-H226): 45.7 nM
- GI50 (NCI-H23): 41.7 nM
- GI50 (NCI-H460): 21.4 nM
- GI50 (NCI-H522): 14.1 nM
- GI50 (COLO 205): 49 nM
- GI50 (HCC 2998): 61.7 nM
- GI50 (HCT-116): 19.5 nM
- GI50 (HCT-15): 1050 nM
- GI50 (HT-29): 75.9 nM
- GI50 (KM12): 29.5 nM
- GI50 (SW-620): 29.5 nM
- GI50 (SF-268): 30.9 nM
- GI50 (SF-295): 39.8 nM
- GI50 (SF-539): 33.1 nM
- GI50 (SNB-19): 43.6 nM
- GI50 (SNB-75): 30.2 nM
- GI50 (U-251): 23.4 nM
- GI50 (LOX IMVI): 20.4 nM
- GI50 (Malme-3M): 24 nM
- GI50 (M14): 100 nM
- GI50 (MDA-MB-435): 42.7 nM
- GI50 (SK-MEL-2): 33.9 nM
- GI50 (SK-MEL-28): 27.5 nM
- GI50 (SK-MEL-5): 27.5 nM
- GI50 (UACC-257): 69.2 nM
- GI50 (UACC-62): 12.3 nM
- GI50 (IGROV-1): 75.9 nM
- GI50 (OVCAR-3): 69.2 nM
- GI50 (OVCAR-4): 209 nM
- GI50 (OVCAR-5): 79.4 nM
- GI50 (OVCAR-8): 53.7 nM
- GI50 [1]: 7760 nM
- GI50 (SK-OV-3): 102 nM
- GI50 [2]: 61.7 nM
- GI50 (A498): 32.4 nM
- GI50 (ACHN): 155 nM
- GI50 (CAKI-1): 229 nM
- GI50 (RXF 393): 25.7 nM
- GI50 (SN12C): 35.5 nM
- GI50 (TK-10): 129 nM
- GI50 (UO-31): 166 nM
- GI50 (PC-3): 100 nM
- GI50 (DU-145): 91.2 nM
- GI50 (MCF7): 12.9 nM
- GI50 (MDA-MB-231): 132 nM
- GI50 (Hs-578T): 28.2 nM
- GI50 (BT-549): 17 nM
- GI50 (T47D): 44.7 nM
